Experimental data from US7396837B2, “Antitumoral analogs of lamellarins” (Pharma Mar, S.A.U., priority 2002, dated 2008).

Tests used:
Type in all cases: cell-based
K-562 = test: SRB colorimetric cell growth inhibition assay, K-562; details: Homo sapiens, K562, K-562; for GI50: GI=growth inhibition, read-out: GI50 K-562; for CC50: cell killing (cytotoxic effect), read-out: LC50 K-562; for IC (TGI): total growth inhibition (cytostatic effect), read-out: TGI K-562
Method in brief: (§1)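 Sulforhodamine B colorimetric readout measured cell growth and viability after continuous compound exposure of human cancer cell lines in 96-well plates. Triplicate wells gave mean ± SD, from which growth inhibition (GI), cytostatic total growth inhibition (TGI) and cytotoxic cell killing (LC) were calculated.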

A-549 = test: SRB colorimetric cell growth inhibition assay, A-549; details: Homo sapiens, A549, A-549; for GI50: GI=growth inhibition, read-out: GI50 A-549; for CC50: cell killing (cytotoxic effect), read-out: LC50 A-549; for IC (TGI): total growth inhibition (cytostatic effect), read-out: TGI A-549
Method in brief: as §1

SK-MEL-28 = test: SRB colorimetric cell growth inhibition assay, SK-MEL-28; details: Homo sapiens, SK-MEL-28, MEL-28; for GI50: GI=growth inhibition, read-out: GI50 MEL-28; for CC50: cell killing (cytotoxic effect), read-out: LC50 MEL-28; for IC (TGI): total growth inhibition (cytostatic effect), read-out: TGI MEL-28
Method in brief: as §1

HT-29 = test: SRB colorimetric cell growth inhibition assay, HT-29; details: Homo sapiens, HT-29, HT-29; for GI50: GI=growth inhibition, read-out: GI50 HT-29; for CC50: cell killing (cytotoxic effect), read-out: LC50 HT-29; for IC (TGI): total growth inhibition (cytostatic effect), read-out: TGI HT-29
Method in brief: as §1

LoVo = test: SRB colorimetric cell growth inhibition assay, LoVo; details: Homo sapiens, LoVo; for GI50: GI=growth inhibition, read-out: GI50 LOVO; for CC50: cell killing (cytotoxic effect), read-out: LC50 LOVO; for IC (TGI): total growth inhibition (cytostatic effect), read-out: TGI LOVO
Method in brief: as §1

LoVo-Dox = test: SRB colorimetric cell growth inhibition assay, LoVo-Dox (MDR); details: Homo sapiens, LOVO-DOX; for GI50: GI=growth inhibition, read-out: GI50 LOVO-DOX; for CC50: cell killing (cytotoxic effect), read-out: LC50 LOVO-DOX; for IC (TGI): total growth inhibition (cytostatic effect), read-out: TGI LOVO-DOX
Method in brief: as §1

DU-145 = test: SRB colorimetric cell growth inhibition assay, DU-145; details: Homo sapiens, DU-145, DU-145; for GI50: GI=growth inhibition, read-out: GI50 DU-145; for CC50: cell killing (cytotoxic effect), read-out: LC50 DU-145; for IC (TGI): total growth inhibition (cytostatic effect), read-out: TGI DU-145
Method in brief: as §1

LNCaP = test: SRB colorimetric cell growth inhibition assay, LNCaP; details: Homo sapiens, LNCaP, LN-caP; for GI50: GI=growth inhibition, read-out: GI50 LN-caP; for CC50: cell killing (cytotoxic effect), read-out: LC50 LN-caP; for IC (TGI): total growth inhibition (cytostatic effect), read-out: TGI LN-caP
Method in brief: as §1

SK-BR-3 = test: SRB colorimetric cell growth inhibition assay, SK-BR-3; details: Homo sapiens, SK-BR-3, SK-BR-3; for GI50: GI=growth inhibition, read-out: GI50 SK-BR-3; for CC50: cell killing (cytotoxic effect), read-out: LC50 SK-BR-3; for IC (TGI): total growth inhibition (cytostatic effect), read-out: TGI SK-BR-3
Method in brief: as §1

IGROV = test: SRB colorimetric cell growth inhibition assay, IGROV; details: Homo sapiens, IGROV; for GI50: GI=growth inhibition, read-out: GI50 IGROV; for CC50: cell killing (cytotoxic effect), read-out: LC50 IGROV; for IC (TGI): total growth inhibition (cytostatic effect), read-out: TGI IGROV
Method in brief: as §1

IGROV-ET = test: SRB colorimetric cell growth inhibition assay, IGROV-ET (ET-743 resistant); details: Homo sapiens, IGROV-ET; for GI50: GI=growth inhibition, read-out: GI50 IGROV-ET; for CC50: cell killing (cytotoxic effect), read-out: LC50 IGROV-ET; for IC (TGI): total growth inhibition (cytostatic effect), read-out: TGI IGROV-ET
Method in brief: as §1

HeLa = test: SRB colorimetric cell growth inhibition assay, HeLa; details: Homo sapiens, HeLa; for GI50: GI=growth inhibition, read-out: GI50 HELA; for CC50: cell killing (cytotoxic effect), read-out: LC50 HELA; for IC (TGI): total growth inhibition (cytostatic effect), read-out: TGI HELA
Method in brief: as §1

HeLa-APL = test: SRB colorimetric cell growth inhibition assay, HeLa-APL (aplidine resistant); details: Homo sapiens, HELA-APL; for GI50: GI=growth inhibition, read-out: GI50 HELA-APL; for CC50: cell killing (cytotoxic effect), read-out: LC50 HELA-APL; for IC (TGI): total growth inhibition (cytostatic effect), read-out: TGI HELA-APL
Method in brief: as §1

PANC-1 = test: SRB colorimetric cell growth inhibition assay, PANC-1; details: Homo sapiens, PANC-1, PANC-1; for GI50: GI=growth inhibition, read-out: GI50 PANC-1; for CC50: cell killing (cytotoxic effect), read-out: LC50 PANC-1; for IC (TGI): total growth inhibition (cytostatic effect), read-out: TGI PANC-1
Method in brief: as §1

COc1cc(-c2c3c4cc(OC)c(OC(=O)[C@@H](N)C(C)C)cc4oc(=O)c3n3ccc4cc(OC(=O)[C@@H](N)C(C)C)c(OC)cc4c23)ccc1OC(=O)[C@@H](N)C(C)C [Compound 195]
GI50 (K-562): 11.7 nM | CC50 (K-562): 170 nM | IC (TGI) (K-562): 40.9 nM | GI50 (A-549): 113 nM | CC50 (A-549): 11000 nM | IC (TGI) (A-549): 1150 nM | GI50 (SK-MEL-28): 44.1 nM | CC50 (SK-MEL-28): 1940 nM | IC (TGI) (SK-MEL-28): 159 nM | GI50 (HT-29): 2150 nM | CC50 (HT-29): 8620 nM | IC (TGI) (HT-29): 4310 nM | GI50 (LoVo): 150 nM | CC50 (LoVo): 783 nM | IC (TGI) (LoVo): 342 nM | GI50 (LoVo-Dox): 106 nM | CC50 (LoVo-Dox): 2500 nM | IC (TGI) (LoVo-Dox): 500 nM | GI50 (DU-145): 13.7 nM | CC50 (DU-145): 58.5 nM | IC (TGI) (DU-145): 28.4 nM | GI50 (LNCaP): 22.1 nM | CC50 (LNCaP): 365 nM | IC (TGI) (LNCaP): 86.4 nM | GI50 (SK-BR-3): 45.5 nM | CC50 (SK-BR-3): 840 nM | IC (TGI) (SK-BR-3): 89.8 nM | GI50 (IGROV): 25 nM | CC50 (IGROV): 855 nM | IC (TGI) (IGROV): 145 nM | GI50 (IGROV-ET): 41.7 nM | CC50 (IGROV-ET): 2740 nM | IC (TGI) (IGROV-ET): 215 nM | GI50 (HeLa): 51.3 nM | CC50 (HeLa): 633 nM | IC (TGI) (HeLa): 204 nM | GI50 (HeLa-APL): 87.6 nM | CC50 (HeLa-APL): 536 nM | IC (TGI) (HeLa-APL): 234 nM | GI50 (PANC-1): 56.9 nM | CC50 (PANC-1): 3110 nM | IC (TGI) (PANC-1): 363 nM

COc1cc2c(cc1O)CCn1c-2cc2c3cc(OC)c(O)cc3oc(=O)c21 [Compound 196]
GI50 (K-562): 234 nM | CC50 (K-562): 1500 nM | IC (TGI) (K-562): 614 nM | GI50 (A-549): 1680 nM | CC50 (A-549): 26400 nM | IC (TGI) (A-549): 26400 nM | GI50 (SK-MEL-28): 675 nM | CC50 (SK-MEL-28): 26400 nM | IC (TGI) (SK-MEL-28): 8990 nM | GI50 (HT-29): 8460 nM | CC50 (HT-29): 26400 nM | IC (TGI) (HT-29): 26400 nM | GI50 (LoVo): 799 nM | CC50 (LoVo): 26400 nM | IC (TGI) (LoVo): 3530 nM | GI50 (LoVo-Dox): 517 nM | CC50 (LoVo-Dox): 26400 nM | IC (TGI) (LoVo-Dox): 26400 nM | GI50 (DU-145): 414 nM | CC50 (DU-145): 11200 nM | IC (TGI) (DU-145): 1650 nM | GI50 (LNCaP): 398 nM | CC50 (LNCaP): 9780 nM | IC (TGI) (LNCaP): 1450 nM | GI50 (SK-BR-3): 654 nM | CC50 (SK-BR-3): 26400 nM | IC (TGI) (SK-BR-3): 1650 nM | GI50 (IGROV): 691 nM | CC50 (IGROV): 16500 nM | IC (TGI) (IGROV): 2490 nM | GI50 (IGROV-ET): 849 nM | CC50 (IGROV-ET): 26400 nM | IC (TGI) (IGROV-ET): 3850 nM | GI50 (HeLa): 351 nM | CC50 (HeLa): 26400 nM | IC (TGI) (HeLa): 1930 nM | GI50 (HeLa-APL): 117 nM | CC50 (HeLa-APL): 1920 nM | IC (TGI) (HeLa-APL): 511 nM | GI50 (PANC-1): 957 nM | CC50 (PANC-1): 26400 nM | IC (TGI) (PANC-1): 7250 nM

COc1cc(-c2c3c4cc(OC)c(OC(=O)CCc5ccccc5)cc4oc(=O)c3n3ccc4cc(OC(=O)CCc5ccccc5)c(OC)cc4c23)ccc1OC(=O)CCc1ccccc1 [Compound 8]
GI50 (K-562): 225 nM | CC50 (K-562): 7490 nM | IC (TGI) (K-562): 1570 nM | GI50 (A-549): 744 nM | CC50 (A-549): 11200 nM | IC (TGI) (A-549): 6340 nM | GI50 (SK-MEL-28): 407 nM | CC50 (SK-MEL-28): 11200 nM | IC (TGI) (SK-MEL-28): 2200 nM | GI50 (HT-29): 377 nM | CC50 (HT-29): 11200 nM | IC (TGI) (HT-29): 11200 nM | GI50 (LoVo): 1480 nM | CC50 (LoVo): 11200 nM | IC (TGI) (LoVo): 4680 nM | GI50 (LoVo-Dox): 8340 nM | CC50 (LoVo-Dox): 11200 nM | IC (TGI) (LoVo-Dox): 11200 nM | GI50 (DU-145): 703 nM | CC50 (DU-145): 9430 nM | IC (TGI) (DU-145): 2600 nM | GI50 (LNCaP): 654 nM | CC50 (LNCaP): 7210 nM | IC (TGI) (LNCaP): 2470 nM | GI50 (SK-BR-3): 915 nM | CC50 (SK-BR-3): 9190 nM | IC (TGI) (SK-BR-3): 3040 nM | GI50 (IGROV): 445 nM | CC50 (IGROV): 11200 nM | IC (TGI) (IGROV): 2170 nM | GI50 (IGROV-ET): 3350 nM | CC50 (IGROV-ET): 11200 nM | IC (TGI) (IGROV-ET): 11200 nM | GI50 (HeLa): 276 nM | CC50 (HeLa): 7920 nM | IC (TGI) (HeLa): 1410 nM | GI50 (HeLa-APL): 7300 nM | CC50 (HeLa-APL): 11200 nM | IC (TGI) (HeLa-APL): 11200 nM | GI50 (PANC-1): 231 nM | CC50 (PANC-1): 11200 nM | IC (TGI) (PANC-1): 865 nM
